Assay results taken from patent publication US20210038732A1, “ANTICANCER MICRORNA AND LIPID FORMULATIONS THEREOF” (INTERNA TECHNOLOGIES B.V., priority 2018, published 2021).

Key:
[1] = tested on: subq human A2058 melanoma tumors; experiment: Tumor growth inhibition in mice bearing subq A2058 tumors (Example 4.2); type: in vivo
Procedure: To determine TGI effects, the T/C (tumor/control) ratio was determined by calculating the relative percentage increase in TV (tumor volume) for the individual mice of each group (TV of the day of randomization as reference point), and then dividing the group median relative increase in TV for the treated groups by that for the PBS group. Outliers (with respect to individual TVs) within each treatment group were determined by using the formulas Q1−1.5×IQR (lower limit) and Q3+1.5×IQR (upper limit).
Statistical analysis was performed using Graphpad Prism 7. A two-tailed, non-parametric Mann-Whitney test was used to calculate differences in relative tumor volumes (TV on day ‘X’ divided by TV on the day of randomization). In all statistical tests, the effect of the test items was compared to the PBS group. A p-value <0.05 was considered statistically significant.
Four to six weeks old female athymic nude mice (Crl:NU(NCr)-Foxn1nu; Charles River) were unilaterally and subcutaneously injected in the flank with 1×10^7 A2058 cells in 50% matrigel (0.2 mL/mouse). At the time of randomization, the TVs (tumor volumes) ranged between 139.4 and 245.5 mm3 (median 161.3, IQR=149.9-175.1). Body weights and TVs (caliper measurements) were determined three times/week. […]

[2] = tested on: 4T1 mouse tumor cells; experiment: 4T1 re-challenge of previously treated mice, with or without T-cell depletion (Example 4.11); type: in vivo
Description: In all cases, monoclonal antibodies were delivered to mice by intraperitoneal injection in 200p1 phosphate-buffered saline. For depletion and neutralization experiments, CD4 (clone GK1.5) and CD8 (clone 2.43) antibodies were used simultaneously. Depletion or neutralization was commenced a week before tumor cell inoculation. For CD4+ and CD8+ T-cell depletion, […] of the indicated antibody was delivered on a QOD×3 schedule in the first week and then a Q3D schedule for 3 more weeks. Depletion of the desired T-cell population(s) was confirmed on whole blood by flow cytometry (data not shown). 100 μL whole blood was drawn per animal on day 0 and day 14 post tumor cell inoculation (day 0=24h post QOD×3, Day 14: 24h post QOD×3+Q3D for 2 weeks). Then mixed with the antibodies. After vortexing gently, the mix was incubated for 30 minutes in the dark at room temperature (RT). 2 ml of 1× FACS lysing buffer was added to the solution and incubated for 10 min at RT. Then the solution mix was centrifuged for 5 min and the supernatant was removed. Finally, the cells were resuspended in 150p1 of staining buffer and analyzed on a cytometer. All flow cytometry antibodies (anti-CD45-PerCP-cy55 (clone: 30-F11), anti-CD3-FITC (clone: 17A2) anti-CD4-APC (clone: RM4-4), anti-CD8-PE (clone: 53-6.7) were purchased from Biolegend except anti-CD3 from BD Biosciences. (QOD×3: every other day for 3 days, Q3D: every 3 days (Monday-Thursday)).
To investigate the T-cell mediated long-term immunity in miRNA-193a treated mice against 4T1 cancer cells, a new study with similar conditions to example 4.4 was performed. 5 days post-tumor inoculation, mice were randomized into 2 groups and received a similar treatment and dosing regimen as in example 4.4 (see Table 9, groups 1-2 only). After surgical removal of primary tumors when the group mean tumor volume reached 800 mm3, treatments were resumed and continued until day 58. […]

[3] = tested on: A20 Reticulum cell sarcoma (lymphoma); experiment: Primary tumor growth, syngeneic model; type: in vivo, mice; settings: 10 mg/kg i.v BIW x 3-4 weeks, vs PBS
Description: (§1) In this study, the effect of miRNA-193a formulated in diamino lipid nanoparticles was investigated on the primary tumor growth in a panel of twelve syngeneic tumor models. Six to eight weeks mice (Shanghai Lingchang Bio-Technology Co. Ltd, Shanghai, China) were subcutaneously injected with an appropriate number of syngeneic cancer cells, depending on the cancer model (see Table 18). At the time of randomization, tumor volume (TV) was approximately 80-120 mm^3. Body weights and TVs (caliper measurements) were determined 2-3 times/week. After randomization (indicated as day 0) mice received PBS or miR-193a (formulated in diamino lipid nanoparticles) treatments as shown in Table 19. Each tumor model had two groups as depicted in Table 19. Mice were scheduled to be euthanized after two weeks of follow up after a maximum of four weeks of treatment.

[4] = tested on: B16-F10 Melanoma; experiment: Primary tumor growth, syngeneic model; type: in vivo, mice; settings: 10 mg/kg i.v BIW x 3-4 weeks, vs PBS
Description: as §1

[5] = tested on: CT26 Colon carcinoma; experiment: Primary tumor growth, syngeneic model; type: in vivo, mice; settings: 10 mg/kg i.v BIW x 3-4 weeks, vs PBS
Description: as §1

[6] = tested on: EMT-6 Breast mammary carcinoma; experiment: Primary tumor growth, syngeneic model; type: in vivo, mice; settings: 10 mg/kg i.v BIW x 3-4 weeks, vs PBS
Description: as §1

[7] = tested on: H22 Hepatocarcinoma; experiment: Primary tumor growth, syngeneic model; type: in vivo, mice; settings: 10 mg/kg i.v BIW x 3-4 weeks, vs PBS
Description: as §1

[8] = tested on: Hepa 1-6 Hepatoma; experiment: Primary tumor growth, syngeneic model; type: in vivo, mice; settings: 10 mg/kg i.v BIW x 3-4 weeks, vs PBS
Description: as §1

[9] = tested on: LL/2 Lung carcinoma; experiment: Primary tumor growth, syngeneic model; type: in vivo, mice; settings: 10 mg/kg i.v BIW x 3-4 weeks, vs PBS
Description: as §1

[10] = tested on: MC38 Colon carcinoma; experiment: Primary tumor growth, syngeneic model; type: in vivo, mice; settings: 10 mg/kg i.v BIW x 3-4 weeks, diamino lipid nanoparticles, vs PBS, median tumor volume
Description: as §1

[11] = tested on: Pan02 Pancreatic adenocarcinoma; experiment: Primary tumor growth, syngeneic model; type: in vivo, mice; settings: 10 mg/kg i.v BIW x 3-4 weeks, vs PBS
Description: as §1

[12] = tested on: RM-1 Prostate cancer; experiment: Primary tumor growth, syngeneic model; type: in vivo, mice; settings: 10 mg/kg i.v BIW x 3-4 weeks, vs PBS
Description: as §1

With “miRNA-193a: duplex of the miRNA-193a-3p of SEQ ID NO: 218 (mimic, sense) with antisense strand SEQ ID NO: 219; naked in vitro, formulated in vivo (sense UGGGACUUUGUAGGCCAGUUTT; antisense AACUGGCCUACAAAGUCCCAGU; chemistry not given here; listed as Homo sapiens)” the “T/C (relative tumor volume)” value ([1]; 3 mg/kg iv QDx5 then BIW, Table 1 entry 1 nanoparticles, 12 days after start of treatment) was 0.44, the TGI effects ([1]; formulated in nanoparticles according to the invention, 3 mg/kg iv) was “significant TGI effects” and the “4T1 tumor growth after second re-challenge” value ([2]; previously treated mice depleted for T cells (anti-CD4 + anti-CD8)) was “resulted in 4T1 tumor growth”. For the same substance, the “4T1 tumor growth after second re-challenge” value ([2]; previously treated mice not depleted for T cells) was “did not show a palpable 4T1 tumor”, the “Tumor re-growth after 4T1 re-challenge” value ([2]; re-challenge day 76, followed up to 3 weeks, vs naïve mice) was “did not develop any palpable tumor” and the “% TGI by miRNA-193a” value [3] was 54%. For the same substance, the “% TGI by miRNA-193a” value [4] was 56%, the “% TGI by miRNA-193a” value [5] was 12% and the “% TGI by miRNA-193a” value [6] was 42%. The “% TGI by miRNA-193a” value [7] was 45%, the “% TGI by miRNA-193a” value [8] was 7% and the “% TGI by miRNA-193a” value [9] was 64%. The “% TGI by miRNA-193a” value [10] was 71%, the “% TGI by miRNA-193a” value [11] was 46% and the “% TGI by miRNA-193a” value [12] was 25%.
